Assay results: patent US8173696B2, “Inhibitors of cysteine proteases and methods of use thereof” (Baylor University, priority 2007, dated 2012)
pIC50: −log10 of the molar value.

Tests used:
cathepsin L [1] = test: Inhibition of activated cathepsin L in DU-145 cell lysates; assay type: cell-based; details: DU-145 cell lysates preincubated for 24 h with compound, following removal of media, replicate samples a-c; for activity (cathepsin L activity after activation): control 6.93E−03; for cps (cathepsin L activity after activation): control 26950
Protocol: (§1) A prostrate carcinoma derived cell line (DU-145) was maintained in free phenol red DMEM supplemented with 10% fetal bovine serum, 1% glutamine, 1% glutamax, 1% Penicillin-Streptomycin and 1 mM sodium pyruvate, at 37° C. in an atmosphere of 95% air/5% CO2. DU145 was plated at 4×10^6 cells/10 cm Petri dish for dense, super confluent density. These cultures were incubated for 3 days before collection. Twenty-four hours prior to harvesting, cells were fed with serum-free media or serum-free media containing inhibitors at a final concentration of 20 μM. On the day of harvesting, the serum-free medium was collected for assay of Cathepsin L activity secreted in the medium. The cells were rinsed in cold PBS (pH 7.2) and collected in cold PBS containing […]. The cells were lysed using a Sonicator (Misonix 3000) at medium setting with pauses at 0° C. for temperature equilibration. Then the homogenate was centrifuged at 13,000×g for 20 min and the supernatant saved. […] Fluorescence was measured in a Fluoro Max 2 (Jobin Yvon) spectrofluorometer at an excitation wavelength of 355 nm and an emission wavelength of 460 nm. The substrate is hydrolyzed by cathepsin L and to a smaller extent by cathepsin B, therefore the activity is referred to as cathepsin L+B activity. Data analysis was performed using Prism software (GraphPad version 4). Data corresponding to cathepsin L activity (after activation) in cell lysates preincubated for 24 h with Compound 14 and following the removal of media is summarized in Table 5 below. Data corresponding to cathepsin L activity (after activation) in cell lysates preincubated for 24 h with Compound 27 and following the removal of media is summarized in Table 6 below.

Cruzain = Cruzain (Trypanosoma cruzi, UniProt P25779); test: biochemical; assay type: biochemical; details: Table A; 0.1 nM cruzain, pH 5.50, 25° C., 10 μM Z-Phe-Arg-AMC
Cruzain, sequence (P25779 123-467): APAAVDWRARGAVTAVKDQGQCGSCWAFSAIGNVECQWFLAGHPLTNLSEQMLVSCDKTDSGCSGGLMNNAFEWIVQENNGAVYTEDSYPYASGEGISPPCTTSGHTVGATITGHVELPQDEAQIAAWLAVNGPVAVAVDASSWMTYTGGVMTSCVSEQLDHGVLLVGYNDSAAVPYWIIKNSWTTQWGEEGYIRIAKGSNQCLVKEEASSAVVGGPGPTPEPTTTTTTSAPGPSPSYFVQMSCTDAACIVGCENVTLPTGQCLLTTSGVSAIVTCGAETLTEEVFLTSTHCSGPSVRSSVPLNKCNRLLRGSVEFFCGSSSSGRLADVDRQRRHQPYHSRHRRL
Protocol: Cruzain (0.1 nM) in 100 mM sodium acetate buffer (pH 5.50) containing 5 mM DTT was preincubated for 5 min at 25° C. with inhibitor.

cathepsin L [2] = test: Inhibition of activated cathepsin L secreted in DU-145 cell conditioned media; assay type: cell-based; details: compound 20 μM, replicate samples a-c
Protocol: as §1, with “cell conditioned media in the presence of” for “cell lysates preincubated for 24 h with”, “14 (20 μM)” for “14 and following the removal of media”, “Table 3” for “Table 5”, “27 (20 μM)” for “27 and following the removal of media”, “Table 4” for “Table 6”

Cat B = Cat B (Homo sapiens, UniProt P07858); test: Cathepsin B inhibition in vitro; assay type: biochemical; details: Table A; read-out: Cat B IC50
Protocol: For in vitro cysteine protease inhibition determinations, a compound's effectiveness can be given by an IC50 value. In these assays, the enzyme to be inhibited (e.g., a cruzain or cruzipain, a rhodesain, a brucipain, a congopain, a falcipain, CPB2.8 Delta CTE, a cathepsin-L, cathepsin-B, a cathepsin-H, a cathepsin-K, a cathepsin-S) is first incubated with varying concentrations (about 20-50,000 nM) of a test compound. To this is added a short peptide substrate of the enzyme of 1 to 10 amino acids, usually a di- or tri-peptide substrate, which is labeled with either a fluorogenic or chromogenic moiety. An exemplary chromogenic moiety is p-nitro-anilide (pNA). […] Exemplary peptide substrates include Phe-Arg, Arg-Arg, Phe-Arg-X (X=Ala, Arg), and Phe-X-Ser-Arg-Gln (X=Arg, 4-aminomethyl-phenylalanine (Arm), 4-aminomethyl-N-isopropyl-phenylalanin-e (laf), 4-piperidinyl-alanine (Ppa) or 4-aminocyclohexyl-alanine (Aca)). Cleavage of the labeled substrate induces a chromogenic or fluorescent signal that is measured using spectrophotometer or a spectrofluorometer, respectively. Signals induced in the presence of varying concentrations of test compound are measured in comparison to a positive control of enzyme and substrate and a negative control of enzyme in diluent (e.g., DMSO). Spontaneous cleavage of substrate is measured in controls with substrate alone. IC50 values are determined graphically using compound inhibitor concentrations in the linear portion of a plot of inhibition versus log [I].

Human liver cathepsin L = target: T1, Human liver cathepsin L (Homo sapiens, UniProt P07711); test: Cathepsin L inhibition in vitro (Z-FR-AMC fluorescence); assay type: biochemical; details: Table A; 1 nM human liver cathepsin L, pH 5.5, 25° C., 50 μM Z-FR-AMC; read-out: Cat L IC50
T1 construct: from tissue; host or cells: human liver
T1 sequence (P07711 114-333): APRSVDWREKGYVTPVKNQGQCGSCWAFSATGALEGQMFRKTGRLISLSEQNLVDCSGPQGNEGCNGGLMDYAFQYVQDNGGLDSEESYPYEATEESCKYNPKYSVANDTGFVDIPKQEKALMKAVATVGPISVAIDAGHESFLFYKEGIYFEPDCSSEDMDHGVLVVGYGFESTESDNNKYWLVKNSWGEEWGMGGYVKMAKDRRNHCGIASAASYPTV
Protocol: Human liver cathepsin L (1 nM) was incubated in 50 mM sodium acetate buffer, pH 5.5 containing 1 mM EDTA, 2 mM DTT, 0.001% (v/v) brij 35 with potential inhibitors at 20 different concentrations (from 0.05 nM to 50 μM) at 25° C. for 5 minutes before 100 μL substrate (benzyloxycarbonyl-L-phenylalanyl-L-arginyl-7-amido-4-methylcoumarin, abbreviated as Z-FR-AMC, 50 μM in final assay condition) was added to the enzyme-inhibitor mixture; total volume was 200 μL. Controls were performed using enzyme alone, substrate alone, and enzyme with DMSO. […] Spectra were taken at 3-sec intervals for 3 minutes. IC50 values were determined by non-linear regression analysis using vo(inh)=VMAX/{1+10(logIC50−x)*Hillslope} and Prism software (GraphPad).

pIC50 (Cruzain): 7.62
pIC50 (Cat B): < 5.52
pIC50 (Human liver cathepsin L): 8.82
SMILES: NC(=S)NN=C(c1cccc(Br)c1)c1cccc(Br)c1 [Compound 14, Bis(3-bromophenyl) ketone thiosemicarbazone]
activity (cathepsin L activity after activation) (cathepsin L [1]; listed as 14a): 0.00161 µM/s
activity (cathepsin L activity after activation) (cathepsin L [1]; listed as 14b): 0.00144 µM/s
activity (cathepsin L activity after activation) (cathepsin L [1]; listed as 14c): 0.00129 µM/s
cps (cathepsin L activity after activation) (cathepsin L [1]; listed as 14a): 6259 cps
cps (cathepsin L activity after activation) (cathepsin L [1]; listed as 14b): 5608 cps
cps (cathepsin L activity after activation) (cathepsin L [1]; listed as 14c): 5003 cps
activity (cathepsin L activity after activation) (cathepsin L [2]; control 1.50E−03, listed as 14a): 0.000186 µM/s
activity (cathepsin L activity after activation) (cathepsin L [2]; control 1.50E−03, listed as 14b): 0.000165 µM/s
activity (cathepsin L activity after activation) (cathepsin L [2]; control 1.50E−03, listed as 14c): 0.000127 µM/s
cps (cathepsin L activity after activation) (cathepsin L [2]; control 5848, listed as 14a): 722.5 cps
cps (cathepsin L activity after activation) (cathepsin L [2]; control 5848, listed as 14b): 641.2 cps
cps (cathepsin L activity after activation) (cathepsin L [2]; control 5848, listed as 14c): 495 cps
